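Where inhibition never reached the appropriate level, the endpoint shown equals the highest concentration tested. Otherwise, values were interpolated linearly from a five-concentration, 48-hour dose response in 96-well plates. GI50 = concentration required for 50% inhibition of growth.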 Activity calls are given as the source filed them. Cut-off read from the data, not from the text of the source: active = GI50 up to about 1.1 µM and inactive = higher. Where only a bound is given, the exact number is not on record here.

This note sets out measurements from ChEMBL document CHEMBL1201862, “PubChem BioAssay data set” (2004).

Some test systems named below: U-251; NCI-H460; EKVX; M14; KM12; COLO 205; SN12C; SR; OVCAR-5; RPMI-8226; CAKI-1; HCT-15; NCI-H522; RXF 393; HCC 2998.
Experiment in all cases: NCI-60 cell line screen, 48 h

For the molecule `O=C(O)/C(Cl)=C(Cl)/C=N/NC(=O)c1cc2ccccc2cc1O`, the GI50 in the assay with U-251 is 27.5 µM (inactive); in the assay with NCI-H460 it was 21 µM (inactive); in the assay on EKVX, 30.2 µM (inactive); in the assay on M14 it was 14.5 µM (inactive); in the assay on KM12 it was 36.8 µM (inactive); with COLO 205, 32.5 µM (inactive). In addition, the GI50 was 38.5 µM (inactive) in the assay with SN12C; 9.55 µM (inactive) in the assay on SR; 19.3 µM (inactive) with OVCAR-5; 6.71 µM (inactive) in the assay on RPMI-8226; 21 µM (inactive) in the assay on CAKI-1; 19.4 µM in the assay with HCT-15. In the assay with NCI-H522, the GI50 was 22.1 µM (inactive).

With `Cc1ccc(/C=C2\CCCC(C(NO)c3ccc(C)cc3)C2=NO)cc1` (configuration not stated), the GI50 is 55.2 µM (inactive) with U-251; 24.7 µM (inactive) with NCI-H460; 44.4 µM (inactive) with EKVX; 26.4 µM (inactive) in the assay on M14; 21.2 µM (inactive) in the assay on KM12; 19.1 µM (inactive) with COLO 205. The GI50 in the assay on RXF 393 was 20.6 µM (inactive); in the assay on SN12C, 20.7 µM (inactive); in the assay with HCC 2998, 16.8 µM (inactive); in the assay on RPMI-8226 it was 22.6 µM (inactive); in the assay on CAKI-1, 81.8 µM (inactive); in the assay on HCT-15, 36.3 µM. Moreover, the GI50 in the assay with NCI-H522 was 28.5 µM (inactive).

Turning to `COc1nc2c(c(O)c(C)c(=O)n2OC2OC(COC(C)=O)C(OC(C)=O)C(OC(C)=O)C2OC(C)=O)c(=O)n1C` (configuration not stated), the GI50 with U-251, with NCI-H460, in the assay with EKVX, with M14, in the assay on KM12 and in the assay on COLO 205 was > 100 µM (inactive) in each case. The GI50 with RXF 393 is > 100 µM (inactive); in the assay with SN12C, > 100 µM (inactive); in the assay on SR, > 100 µM (inactive); in the assay on HCC 2998, > 100 µM (inactive); in the assay with OVCAR-5 it was > 100 µM (inactive); in the assay on HCT-15 it was greater than 100 µM. Further, in the assay with NCI-H522, the GI50 was 44.8 µM (inactive).

With `CCOC(C)C(/C=N/NC(N)=S)=NNC(N)=S` (configuration not stated) [GLOXAZONE], the GI50 in the assay with U-251 is 1.07 µM (active); with NCI-H460 it was > 100 µM (inactive); in the assay with EKVX it was 0.248 µM (active); in the assay on KM12 it was > 100 µM (inactive); in the assay on COLO 205 it was > 100 µM (inactive); in the assay on SN12C, > 100 µM (inactive). The GI50 with SR was < 0.0251 µM (active); in the assay on HCC 2998 it was > 100 µM (inactive); with OVCAR-5, > 100 µM (inactive); in the assay with RPMI-8226, 0.0643 µM (active); with CAKI-1, > 100 µM (inactive); in the assay with HCT-15 it was greater than 100 µM. In the assay on NCI-H522, the GI50 was 26.2 µM (inactive).

For `O=C(c1ccccc1)c1c(CNCc2ccccc2)n(C(=O)c2ccccc2)c2ccccc12`, the GI50 with U-251 was 20.8 µM (inactive); in the assay with NCI-H460, 14.5 µM (inactive); in the assay with M14 it was 34.4 µM (inactive); in the assay with KM12, 18.9 µM (inactive); in the assay on COLO 205, 47 µM (inactive); with SR it was 6.58 µM (inactive). Further, the GI50 in the assay on HCC 2998 is 86.9 µM (inactive); in the assay on OVCAR-5, > 100 µM (inactive); in the assay with RPMI-8226, 11.6 µM (inactive); in the assay on CAKI-1 it was 69.3 µM (inactive); with HCT-15 it was 28.8 µM; with NCI-H522, 4.52 µM (inactive).

`Cc1cc(=O)n(-c2ccccc2C)c(C)n1`: the GI50 in the assay with U-251, with NCI-H460, with EKVX, in the assay with M14, in the assay on KM12 and in the assay on COLO 205 was > 100 µM (inactive) each time. Further, the GI50 with RXF 393 was > 100 µM (inactive); with SN12C, > 100 µM (inactive); with HCC 2998, > 100 µM (inactive); in the assay with OVCAR-5, > 100 µM (inactive); in the assay with CAKI-1, > 100 µM (inactive); in the assay on HCT-15, greater than 100 µM. In the assay on NCI-H522, the GI50 is > 100 µM (inactive).

As to `COc1ccc(N2C(=O)C3CC(c4ccc(C)cc4)c4c([nH]c5ccccc45)C3C2=O)cc1` (configuration not stated), the GI50 in the assay with U-251 is 10 µM (inactive); in the assay on NCI-H460, 4.9 µM (inactive); in the assay with EKVX it was > 63.5 µM (inactive); with M14, 33.8 µM (inactive); in the assay with KM12, > 41.1 µM (inactive); in the assay on COLO 205 it was 20.7 µM (inactive). For the same molecule, the GI50 was 8.87 µM (inactive) in the assay on SN12C; 2.02 µM (inactive) in the assay with SR; 52.7 µM (inactive) in the assay on HCC 2998; > 72.3 µM (inactive) in the assay with OVCAR-5; > 96.2 µM (inactive) with CAKI-1; 8.61 µM in the assay with HCT-15. Further, the GI50 in the assay on NCI-H522 was 19.5 µM (inactive).

As for `NCC(NC(=O)OCc1ccccc1)C(=O)O` (configuration not stated), the GI50 in the assay on U-251, in the assay on NCI-H460, with EKVX, in the assay with M14, in the assay with KM12 and with COLO 205 was > 50 µM (inactive) in each case. Besides, the GI50 in the assay on SN12C was > 50 µM (inactive); in the assay on HCC 2998 it was > 50 µM (inactive); with OVCAR-5, > 50 µM (inactive); in the assay on RPMI-8226, > 50 µM (inactive); with CAKI-1 it was > 50 µM (inactive); in the assay on HCT-15, greater than 50 µM. Further, the GI50 in the assay with NCI-H522 was > 50 µM (inactive).

Take `COc1cc2oc(-c3ccccc3)cc(=O)c2c(O)c1C`: the GI50 in the assay on U-251, with NCI-H460, in the assay with EKVX, in the assay with M14, in the assay with KM12 and with COLO 205 was > 100 µM (inactive) in each case. The GI50 in the assay on SN12C, in the assay with SR, with HCC 2998, with OVCAR-5, with RPMI-8226 and with CAKI-1 was > 100 µM (inactive) each time. Moreover, the GI50 was greater than 100 µM in the assay on HCT-15 and > 100 µM (inactive) with NCI-H522.

Regarding `CN1NC2(CCCCC2)ON=C1c1ccccc1`, the GI50 in the assay on U-251, in the assay on NCI-H460, with EKVX, in the assay on M14, with KM12 and with COLO 205 was > 100 µM (inactive) throughout. Besides, the GI50 with RXF 393 was > 100 µM (inactive); in the assay on SN12C, > 100 µM (inactive); in the assay with SR it was > 100 µM (inactive); with OVCAR-5, > 100 µM (inactive); in the assay on CAKI-1 it was > 100 µM (inactive); in the assay with HCT-15, greater than 100 µM. In addition, in the assay with NCI-H522, the GI50 was > 100 µM (inactive).

In the case of `CCCCN(CCCC)C(=O)C(=O)C(C)C(=O)CC` (configuration not stated), the GI50 in the assay with U-251, with NCI-H460, with M14, in the assay with KM12, with COLO 205 and in the assay on SN12C was > 100 µM (inactive) throughout. For the same molecule, the GI50 with HCC 2998 is > 100 µM (inactive); with OVCAR-5, > 100 µM (inactive); in the assay with RPMI-8226, > 100 µM (inactive); in the assay with CAKI-1, > 100 µM (inactive); in the assay with HCT-15 it was greater than 100 µM; with NCI-H522 it was > 100 µM (inactive).

Take `CC(=O)Nc1ccc(C(=O)NN2C(=O)C(Cl)C2c2ccccc2O)cc1` (configuration not stated): the GI50 with U-251 is 15.8 µM (inactive); in the assay on NCI-H460, 6.81 µM (inactive); in the assay with EKVX, 99.8 µM (inactive); with M14, 23.8 µM (inactive); with COLO 205, 45.2 µM (inactive); in the assay on RXF 393 it was 24.1 µM (inactive). For the same molecule, the GI50 in the assay with SN12C was > 100 µM (inactive); in the assay on OVCAR-5, > 100 µM (inactive); with CAKI-1, > 100 µM (inactive); in the assay on HCT-15 it was 3.36 µM; in the assay on NCI-H522 it was 36.2 µM (inactive).

`NNC(=O)N/N=C1\C(=O)N(c2ccc(Cl)c(Cl)c2)C(=O)C(=O)C1c1nc2ccccc2s1` (configuration not stated): the GI50 with U-251, in the assay with NCI-H460, in the assay with EKVX, with M14, in the assay on KM12 and in the assay on COLO 205 was > 100 µM (inactive) throughout. Moreover, the GI50 was 38.5 µM (inactive) in the assay on RXF 393; > 100 µM (inactive) with SN12C; 89.9 µM (inactive) in the assay on SR; > 100 µM (inactive) in the assay with HCC 2998; > 100 µM (inactive) in the assay on CAKI-1; greater than 100 µM in the assay with HCT-15. The GI50 in the assay with NCI-H522 was > 100 µM (inactive).

Consider `Cc1cc2c(C)nn(Cc3ccccc3Cl)c2c(C#N)c1C`, for which the GI50 in the assay on U-251, in the assay on NCI-H460, with EKVX, with COLO 205, with RXF 393 and in the assay with SN12C was > 100 µM (inactive) in each case. The GI50 in the assay with SR was > 100 µM (inactive); in the assay with HCC 2998 it was > 100 µM (inactive); with OVCAR-5 it was > 100 µM (inactive); in the assay with RPMI-8226, > 100 µM (inactive); with HCT-15, greater than 100 µM.

Turning to `Cc1ccc(-c2cc(=O)c3cc(C)c(C)c(C(=O)O)c3o2)cc1`, the GI50 in the assay with U-251, in the assay on NCI-H460, in the assay with EKVX, in the assay on M14, in the assay with KM12 and with COLO 205 was > 100 µM (inactive) each time. For the same molecule, the GI50 in the assay with SN12C is > 100 µM (inactive); with HCC 2998, > 100 µM (inactive); in the assay on OVCAR-5 it was > 100 µM (inactive); with RPMI-8226, > 100 µM (inactive); in the assay on HCT-15, greater than 100 µM; with NCI-H522, 24.3 µM (inactive).

On to `Cc1ccccc1C1OC(=O)c2ccccc21` (configuration not stated), for which the GI50 in the assay with U-251, in the assay on NCI-H460, in the assay with EKVX, in the assay with M14, with KM12 and in the assay with COLO 205 was > 100 µM (inactive) in each case. In addition, the GI50 was > 100 µM (inactive) with RXF 393; > 100 µM (inactive) with SN12C; > 100 µM (inactive) in the assay with SR; > 100 µM (inactive) with HCC 2998; > 100 µM (inactive) with OVCAR-5; greater than 100 µM with HCT-15. The GI50 in the assay with NCI-H522 is > 100 µM (inactive).
